# In patent publication EP0257454A1, “Oil-in-water type fat emulsion of 1-[2-(2,4-dichlorophenyl)-3-methyl-1-pentenyl]-1H-imidazole” (MORISHITA PHARMACEUTICAL CO. LTD., priority 1986, dated 1988):
# Tested on: Candida albicans (clinically isolated strain)
# Assay: Activity against Candida albicans infection in mice (survival days)
# Format: in vivo
# Settings: Mice infected with Candida albicans, tail vein injection; summary of Table 1
# Experimental: Activity against Candia albicans: Male CRJ:ICR mice (5 week age, 10 mice per group) were used. The fat emulsion obtained in Example 1; an injection solution (HCO 60 preparation) wherein the compound [I] was dissolved in a concentration of 2 % (w/v) in an aqueous solution of 10 % (w/v) of polyoxyethylene hydrogenated castor oil and 5 % (w/v) of glucose; and a solvent for the HCO 60 preparation (i.e. an aqueous solution of 10 % (w/v) of polyoxyethylene hydrogenated castor oil and 5 % (w/v) of glucose (as a control) The test mice was infected with Candida albicans (clinically isolated strain) by injecting the microorganism in an amount of 5 x 10^6 cells/mouse through the tail vein. One hour after the infection, the test injection products were each injected through the tail vein, and the survival days of mice were measured. The evaluation of effect was calculated by the following formula: Average survival days in each test group T/C = x 100 Average survival days in control group
compound,measurement,value
"CCC(C)C(=Cn1ccnc1)c1ccc(Cl)cc1Cl (stereo not shown) [compound [I], 1-[2-(2,4-dichlorophenyl)-3-methyl-1-pentenyl]-1H-imidazole]",effect against the infection (in words),remarkedly excellent effect against the infection
